# Legend:
# [1] = Dermal tolerability in rats; format: in vivo; settings: female rats; for change in food consumption and body weight gain (in words): 3 mg/kg/day daily for 8 days; for Body Weight Gain (g) Mean ± SD / Food Consumption (g) Mean ± SD: dermal 3 mg/kg/day daily for 8 days, Formulation A
# Procedure: Female rats were administered either vehicle or one of Cmpds IVa, IIIb, or IVb daily for 8 days. The administered dose was 3 mg/kg/day, at a concentration of 3 mg/mL. Observed data were body weight, viability, food consumption, and dermal observation (skin reaction grading), as known in the art. The vehicle was Formulation A. See Table 1 above.
# C57Black/6J mice = test: Piliation (hair regrowth) studies in mice; format: in vivo; settings: for pharmacological efficacy relative to bimatoprost: mouse hair regrowth, vehicle Formulation A
# Procedure: C57Black/6J, 7-week old female mice (n=10) were employed in piliation studies. Dorsal hair was shaved (area ˜2 cm×4 cm). Dosing of active agent was once per day (QD) by topical administration for 14 days. Observations were conducted for 42-days to determine onset of new hair growth and day of hair growth completion. Compounds were formulated as either a) 50% propylene glycol, 30% ethanol, 20% water, or b) the formulation of Formulation A described above. The experiments reported for FIGS. 4A-4B, 5A-5B, 6A-6B, 8A-8B, and 9A-9B were conducted using a vehicle with formulation of 50% propylene glycol, 30% ethanol, 20% water. The experiments reported for FIGS. 7A-7B were conducted using a vehicle of Formulation A described above.
# For each of FIGS. 4A, 5A, 6A, 7A, 8A and 9A, the histograms depict the day of onset of hair growth. For each of FIGS. 4B, 5B, 6B, 7B, 8B and 9B, the histograms depict the day achieving full hair growth.
# [2] = In vitro human skin penetration (Franz diffusion chamber); format: in vitro ADME; settings: for skin penetration (cumulative amount in receptor solution) relative to bimatoprost / penetration flux relative to bimatoprost / Percentage Dose Applied, Receptor Chamber Solution, Prodrug / Percentage Dose Applied, Upper ⅓ Dermis, Prodrug: 0.03% in Formulation A; for skin penetration (cumulative amount in receptor solution) relative to bimatoprost: FIG. 13A; for penetration flux relative to bimatoprost: FIG. 13B; for Percentage Dose Applied, Receptor Chamber Solution, Prodrug: Franz chamber; for Percentage Dose Applied, Receptor Chamber Solution, Prodrug / Percentage Dose Applied, Upper ⅓ Dermis, Prodrug: dosed compound; for Percentage Dose Applied, Upper ⅓ Dermis, Prodrug: dermis at 48 hrs; for conversion to bimatoprost in the SC/Epi/Dermis layers: FIG. 15A; for amount of active agent in the upper third of the dermis relative to bimatoprost: FIG. 15B
# Text: Test material: Dermatomed ex vivo human cadaver posterior trunk skin on 1.0 cm^2 Franz diffusion chamber as known in the art. Test size: 3 skin donors (obtained from New York Firefighters Skin Bank), 3 replicates per donor per formulation. Test formulations: 0.03% active agent (Cmpd IVa, Cmpd IIIb, Cmpd IVb) in Formulation A; control formulation: bimatoprost at 0.03% in Formulation A. Dosing regimen: receptor fluid at 2, 4, 24, and 48 hrs; SC/epidermis and dermis at 48 hrs. Sample analysis: LC/MS-MS to detect bimatoprost and Cmpds IVa, IIIb and IVb.
# [3] = Formulation and stability studies; format: physicochemical; settings: variations of Formulation A, 0.03% active, pH 4, 5, 6 and 7; 25, 40 and 60° C.; zero time and 80-days
# Procedure: Stability over time of compounds disclosed herein was determined in formulation as a function of temperature and pH. Variations of Formulation A described herein were employed wherein the target concentration of active agent was 0.03%, and the pH was varied at pH 4, 5, 6 and 7. Temperatures of 25° C., 40° C. and 60° C. were maintained during the experiment. Samples were evaluated at zero time and 80-days.
# Cmpds IVa, IIIb, and IVb for evaluated for stability.
# FIGS. 1A-1B, 2A-2B, and 3A-3B depict histograms of relative concentrations of test compounds (arbitrary scale) at zero time or 80-days. FIG. 1A depicts a histogram of the stability profile of Cmpd IVa as a function of pH and temperature. FIG. 1B depicts a histogram of the formation of bimatoprost as a function of pH and temperature after 80-days for Cmpd IVa. FIG. 2A depicts a histogram of the stability profile of Cmpd IVb as a function of pH and temperature. FIG. 2B depicts a histogram of the formation of bimatoprost as a function of pH and temperature after 80-days for Cmpd IVb. FIG. 3A depicts a histogram of the stability profile of Cmpd IIIb as a function of pH and temperature. FIG. 3B depicts a histogram of the formation of bimatoprost as a function of pH and temperature after 80-days for Cmpd IIIb.
# [4] = In vitro human skin penetration (Franz diffusion chamber); format: in vitro ADME; settings: FIGS. 14A-14C, 6, 24, 48 hr
# [5] = Partitioning in artificial sebum; format: physicochemical
# Procedure: Compounds bimatoprost, Cmpd IVa, and Cmpd IIIb were added to aqueous solution (1 mL, 2-20 ug/mL), with and without 1-20 mg artificial sebum. Samples were shaken for 16 hr at 37° C. Samples were then centrifuged (8000 RPM) for 15 min at room temperature, prior to collection of the aqueous solution. Samples were analyzed for concentration of compound without artificial sebum (i.e., Co) and with artificial sebum (i.e., Ci) by mass spectroscopy. Artificial sebum and water partition coefficient (Ksebum) was expressed as the concentration of drug in 1 g of artificial sebum divided by the concentration of drug in 1 g of aqueous solution, and was calculated as Ksebum=(Co−Ci)Waqueous/(Ci×Wsebum) (Eqn. 1), where W represents weight.
# Artificial sebum was prepared as follows: 15% (w/w) squalene, 15% spermaceti, 10% coconut oil, 1.5% oleic acid, 5% palmitic acid, 2.4% cholesterol oleate, 10% paraffin wax, 10% olive oil, 25% cottonseed oil, 5% palmitoleic acid, 1.2% cholesterol. The melting point of the semi-liquid was 37° C.
# [6] = tested on: reconstructed human epidermis (RHE); test: In vitro dermal irritation screening in reconstructed human epidermis; format: cell-based; settings: concentration 0.03%, Formulation A vehicle
# Procedure: In vitro irritation screening assays were conducted for compounds described herein. Test system was the reconstructed human epidermis (RHE), as known in the art. Single dosing was employed, and endpoints were evaluated as a function of time up to 24-hrs. Endpoints were tissue viability and IL-1α release.
# Test compounds included Cmpds IVa (0.03%), IIIb (0.03%), IVb (0.03%), bimatoprost (0.03%), minoxidil (5%, foam), and minoxidil (5%, solution). Administration of Cmpds IVa, IIIb, IVb and bimatoprost employed the vehicle of Formulation A. See Table 1 above. Administration of minoxidil employed minoxidil vehicle with formulation 20% H2O, 50% propylene glycol, and 30% ethanol.
# [7] = microAmes mutagenesis screen; format: cell-based; settings: with or without metabolic activation
# Text: Cmpds IVa, IIIb, and IVb were subjected to the microAmes screen, as known in the art.
# [8] = Pharmacokinetic assessment of mouse hair regrowth model; format: in vivo; settings: mice, 0.03% dermal daily ~60 uL, all measured time points, LC/MS-MS
# Procedure: Female C57BL/6J mice (n=2) were assayed per time point per treatment group. Treatment groups: (1) vehicle; (2) 0.03% Cmpd IVa; (3) 0.03% Cmpd IIIb; (4) 0.03% Cmpd IVb; (5) 0.03% bimatoprost. Treatment dosing: dermal daily application of ˜60 uL test compound solution. Blood and skin pharmacokinetic time points were obtained at day 1 (1, 4, 8 and 24-hrs post-dose); day 2 (24-hrs post-dose); day 14 (24-hrs post-dose); and day 42 (28 days post day 14 dose). Bioanalysis employed LC/MS-MS.
# mouse skin = test: Pathology assessment of mouse hair regrowth model; format: in vivo, mice; settings: histology, 0.03% active, vehicle control still in growth phase
# Text: Histological samples from test subjects employed in the studies described in Example 12 were obtained for pathology assessment.
# [9] = tested on: human hair dermal papilla cells, HHDPC; test: Cellular dielectric spectroscopy (CDS) in dermal papilla cells; format: cell-based; settings: for EC50: cell impedance, tested range 10^−4 to 10^−13 mol/L
# Procedure: Cellular dielectric spectroscopy (CDS) was conducted in an assay of dermal papilla cells (i.e., human hair dermal papilla cells, HHDPC) with bimatoprost and Cmpds IVc and IVb. As known in the art, CDS is a real-time, non-invasive, label-free, high-throughput, cell-based assay which measures electrical cell impedance. Without wishing to be bound by any theory, it is believed that GPCR activation induces changes in cell morphology, cell-cell interaction, and cell adherence which manifest as a change in cell impedance.
penetration flux relative to bimatoprost [2],"Percentage Dose Applied, Receptor Chamber Solution, Prodrug [2]","Percentage Dose Applied, Upper ⅓ Dermis, Prodrug [2]",conversion to bimatoprost in the SC/Epi/Dermis layers [2],amount of active agent in the upper third of the dermis relative to bimatoprost [2],stability in formulation [3],conversion to bimatoprost in the receptor chamber solution [4],level in the systemic circulation [8],EC50 [9],SMILES,change in food consumption and body weight gain (in words) [1],Body Weight Gain (g) Mean ± SD [1],Food Consumption (g) Mean ± SD [1],pharmacological efficacy relative to bimatoprost (C57Black/6J mice),skin penetration (cumulative amount in receptor solution) relative to bimatoprost [2],potential for irritation of the human skin [6],mutagenicity in microAmes screen [7],hair cycle phase at day-42 (mouse skin),change in cell impedance [9],further results
greater than that for bimatoprost,0.8 Percentage Dose Applied,2.1 Percentage Dose Applied,converted to bimatoprost,less than observed for bimatoprost,stable in formulation,observed to convert to bimatoprost,most undetectable,,"CCNC(=O)CCC/C=C\C[C@@H]1[C@@H](/C=C/[C@@H](O)CCc2ccccc2)[C@H](OC(=O)CC)C[C@@H]1O [Cmpd IIIb, 11-propionyl bimatoprost]",no significant change in food consumption or body weight gain,10.0 ± 6.1 g,22.8 ± 1.36 g,approximately equivalent efficacy,significantly greater than for bimatoprost,no indication of potential for irritation,not mutagenic,returned to the resting phase,,"dermal observation: signs of irritation ([1]; 3 mg/kg/day, days 2-4): minimal and transient signs of irritation; phase in which the majority of compound remains ([5]; artificial sebum / aqueous solution): remain in the aqueous phase; Ave. Ksebum (artificial sebum and water partition coefficient) ([5]; n = 4, 16 hr at 37° C.): 6.1"
greater than that for bimatoprost,2.1 Percentage Dose Applied,1.9 Percentage Dose Applied,converted to bimatoprost,less than observed for bimatoprost,stable in formulation,observed to convert to bimatoprost,most undetectable,could not be determined,"CCNC(=O)CCC/C=C\C[C@@H]1[C@@H](/C=C/[C@H](CCc2ccccc2)OC(=O)CC)[C@H](O)C[C@@H]1O [Cmpd IVb, 15-propionyl-bimatoprost]",decreases in both food consumption and body weight gain,0.3 ± 6.7 g,19.19 ± 1.32 g,approximately equivalent efficacy,significantly greater than for bimatoprost,no indication of potential for irritation,not mutagenic,returned to the resting phase,not observed to provide a change in cell impedance,"days for hair growth to commence (day of onset of hair growth) (C57Black/6J mice; 0.03%, topical QD 14 days, vehicle 50% propylene glycol, 30% ethanol, 20% water, FIG. 6A): 16 days; days for full hair growth to be achieved (C57Black/6J mice; 0.03%, topical QD 14 days, vehicle 50% propylene glycol, 30% ethanol, 20% water, FIG. 6B): 32 days; activity in the time required to regain full hair growth (ranking) (C57Black/6J mice; among compounds tested at 0.03%): best activity"
,,,,,,,,could not be determined,"CCCC(=O)O[C@H](/C=C/[C@@H]1[C@@H](C/C=C\CCCC(=O)NCC)[C@@H](O)C[C@H]1O)CCc1ccccc1 [Cmpd IVc, 15-butyryl bimatoprost]",,,,,,,,,not observed to provide a change in cell impedance,
